Measured values from paper PMC8568530, “Inhibition of Vascular Smooth Muscle and Cancer Cell Proliferation by New VEGFR Inhibitors and Their Immunomodulator Effect: Design, Synthesis, and Biological Evaluation” (Oxidative Medicine and Cellular Longevity, 2021).

How the values were obtained:
MCF-7 = experiment: MTT antiproliferative assay, MCF-7; type: cell-based; details: Homo sapiens, MCF7, breast cancer MCF-7
Procedure: (§1) The in vitro antiproliferative activities of the newly synthesized compounds were evaluated against a panel of three human tumor cell lines, namely, breast cancer (MCF-7), hepatocellular carcinoma (HepG-2), and colorectal carcinoma (HCT-116) using the standard MTT method. The tested cell lines were selected depending on their VEGF overexpression. Sorafenib, the lead drug, was coassayed as a positive control.
(§2) The antiproliferative activity of the synthesized compounds was evaluated using MTT protocol as described (Supplementary data (available here)).

HepG-2 = experiment: MTT antiproliferative assay, HepG-2; type: cell-based; details: Homo sapiens, HepG2, hepatocellular carcinoma HepG-2
Procedure: as §1, §2

HCT-116 = experiment: MTT antiproliferative assay, HCT-116; type: cell-based; details: Homo sapiens, colorectal carcinoma HCT-116
Procedure: as §1, §2

[1] = tested on: WI-38 cell line (normal human lung fibroblasts); experiment: MTT cytotoxicity against normal cells WI-38; type: cell-based; details: normal human lung fibroblasts WI-38
Procedure: The cytotoxicity values of the synthesized compounds against the WI-38 cell line (normal human lung fibroblasts) were also evaluated in vitro.
as §2

IC50 (MCF-7) [µM] | IC50 (HCT-116) [µM] | melting point [°C] | SMILES | IC50 (HepG-2) [µM] | IC50 [1] [µM]
18.3 | 16.4 | 229 to 232 | O=C(NCc1ccccc1)c1ccc(NC(=O)c2cccnc2)cc1 [Compound 6, N-(4-(Benzylcarbamoyl)phenyl)nicotinamide] | 15.5 | 117
11.8 | 15.3 | 185 to 187 | COc1ccccc1NC(=O)c1ccc(NC(=O)c2cccnc2)cc1 [Compound 7c, N-(4-((2-Methoxyphenyl)carbamoyl)phenyl)nicotinamide] | 19.4 | 137
23.1 | 31.5 | 232 to 235 | O=C(Nc1ccccc1)c1ccc(NC(=O)c2cccnc2)cc1 [Compound 7d, N-(4-(Phenylcarbamoyl)phenyl)nicotinamide] | 29.1 | 144
13.4 | 17.8 | 272 to 274 | O=C(Nc1ccc(Cl)cc1)c1ccc(NC(=O)c2cccnc2)cc1 [Compound 7e, N-(4-((4-Chlorophenyl)carbamoyl)phenyl)nicotinamide] | 22.4 | 143
42.1 | 31.7 | 189 to 192 | O=C(Nc1ccc(C(=O)Nc2ccc(Cl)cc2Cl)cc1)c1cccnc1 [Compound 7g, N-(4-((2,4-Dichlorophenyl)carbamoyl)phenyl)nicotinamide] | 26.6 | 132
16.1 | 18.4 | 198 to 201 | O=C(Nc1ccc(C(=O)Nc2ccccc2[N+](=O)[O-])cc1)c1cccnc1 [Compound 7i, N-(4-((2-Nitrophenyl)carbamoyl)phenyl)nicotinamide] | 15.2 | 103
12.3 | 17.2 | 263 to 265 | O=C(N/N=C/c1ccc(F)cc1)c1ccc(NC(=O)c2cccnc2)cc1 [Compound 11a, (E)-N-(4-(2-(4-Fluorobenzylidene)hydrazine-1-carbonyl)phenyl)-nicotinamide] | 15.5 | 85.1
15.5 | 13.4 | 260 to 262 | O=C(N/N=C/c1ccccc1)c1ccc(NC(=O)c2cccnc2)cc1 [Compound 11b, (E)-N-(4-(2-Benzylidenehydrazine-1-carbonyl)phenyl)-nicotinamide] | 17.6 | 72.3
18.2 | 14.5 | 283 to 285 | O=C(N/N=C/c1c(Cl)cccc1Cl)c1ccc(NC(=O)c2cccnc2)cc1 [Compound 11e, (E)-N-(4-(2-(2,6-Dichlorobenzylidene)hydrazine-1-carbonyl)phenyl)-nicotinamide] | 23.9 | 80.1
20.2 | 34.9 | 256 to 259 | O=C(N/N=C/c1ccc(O)cc1)c1ccc(NC(=O)c2cccnc2)cc1 [Compound 11h, (E)-N-(4-(2-(4-Hydroxybenzylidene)hydrazine-1-carbonyl)phenyl)-nicotinamide] | 31.1 | 103
19.4 | 21.7 | 167 to 169 | O=C(CSc1nnc(-c2cccnc2)o1)NCc1ccccc1 [Compound 18c, N-Benzyl-2-((5-(pyridin-3-yl)-1,3,4-oxadiazol-2-yl)thio)acetamide] | 8.59 | 92.1
4.32 | 5.28 |  | CNC(=O)c1cc(Oc2ccc(NC(=O)Nc3ccc(Cl)c(C(F)(F)F)c3)cc2)ccn1 [Sorafenib, reference compound] | 3.76 | 
